Measurements taken from the supplement of paper PMC10307832.

Legend:
Test in all cases: relative viability (nuclei count vs DMSO), 5 days (fraction); higher = more cells survive
[1] = compound: O[C@H]1CC[C@H](Nc2ncc3nc(Nc4c(F)cc(F)cc4F)n([C@H]4CCOC4)c3n2)CC1 [Tanzisertib] + COc1cccc2cc(-c3nc([C@H]4CC[C@H](C(=O)O)CC4)n4ncnc(N)c34)[nH]c12 [OSI-027] (partner 0.5 µM)
Outline: (§1)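 Lung cancer cell lines were seeded in 1536-well plates and dosed by pin tool the next day, with either a single drug or a fixed anchor-drug dose combined with five library-drug doses (not always all listed) spaced in √10 steps. Five days later, one step fixed the cells and stained their nuclei (final 0.05% Triton X-100, 1% formaldehyde, 1 ug/ml Hoechst), and nuclei were counted on 4× images. Relative viability is the nuclei count in treated wells divided by the count in vehicle wells, and each value is the median of duplicate plates.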

[2] = compound: O[C@H]1CC[C@H](Nc2ncc3nc(Nc4c(F)cc(F)cc4F)n([C@H]4CCOC4)c3n2)CC1 [Tanzisertib] + CCNC(=O)c1noc(-c2cc(C(C)C)c(O)cc2O)c1-c1ccc(CN2CCOCC2)cc1 [Luminespib] (partner 0.01 µM)
Outline: as §1

[3] = compound: O[C@H]1CC[C@H](Nc2ncc3nc(Nc4c(F)cc(F)cc4F)n([C@H]4CCOC4)c3n2)CC1 [Tanzisertib] + Nc1nc2[nH]cc(CCc3ccc(C(=O)N[C@@H](CCC(=O)O)C(=O)O)cc3)c2c(=O)[nH]1 [Pemetrexed] (partner 0.2 µM)
Outline: as §1

[4] = compound: C[C@@H](N)c1ccc(C(=O)Nc2ccnc3[nH]ccc23)cc1 + C[C@]1(O)C[C@@H](c2nc(-c3ccc4ccc(-c5ccccc5)nc4c3)c3c(N)nccn32)C1 [Linsitinib] (partner 1 µM)
Outline: as §1

Row | Cell Line | relative viability ([1]; first compound 0.08 µM) | relative viability ([1]; first compound 0.253 µM) | relative viability ([1]; first compound 0.8 µM) | relative viability ([1]; first compound 2.53 µM) | relative viability ([1]; first compound 8 µM) | relative viability ([2]; first compound 0.08 µM) | relative viability ([2]; first compound 0.253 µM) | relative viability ([2]; first compound 0.8 µM) | relative viability ([2]; first compound 2.53 µM) | relative viability ([2]; first compound 8 µM) | relative viability ([3]; first compound 0.08 µM) | relative viability ([3]; first compound 0.253 µM) | relative viability ([3]; first compound 0.8 µM) | relative viability ([3]; first compound 2.53 µM) | relative viability ([3]; first compound 8 µM) | relative viability ([4]; first compound 0.04 µM) | relative viability ([4]; first compound 0.1265 µM) | relative viability ([4]; first compound 0.4 µM) | relative viability ([4]; first compound 1.265 µM) | relative viability ([4]; first compound 4 µM)
1 | 201T | 0.632 | 0.854 | 0.673 | 0.713 | 0.501 | 1.09 | 1.06 | 1.06 | 1.03 | 1.05 | 0.321 | 0.322 | 0.325 | 0.314 | 0.298 | 1.14 | 1.02 | 1.07 | 1.11 | 1.16
2 | A549 | – | – | – | – | – | – | – | – | – | – | – | – | – | – | – | 0.674 | 0.666 | 0.726 | 0.775 | 0.619
3 | A-427 | 0.547 | 0.525 | 0.538 | 0.414 | 0.283 | 0.941 | 0.893 | 0.942 | 0.972 | 1.07 | 0.958 | 0.99 | 0.998 | 1.04 | 0.916 | 1.08 | 1.11 | 1.06 | – | 1.12
4 | ABC-1 | 0.471 | 0.469 | 0.469 | 0.511 | 0.461 | 0.777 | 0.428 | 0.518 | 0.735 | 0.944 | – | – | – | – | – | 0.894 | 0.81 | 0.998 | 0.911 | 0.683
5 | BEN | 0.299 | 0.281 | 0.293 | 0.314 | 0.288 | 0.352 | 0.77 | 0.814 | 0.382 | 0.209 | 0.755 | 0.923 | 1 | 0.909 | 0.605 | 0.981 | 0.86 | 0.991 | 1.02 | 0.636
6 | CAL-12T | 0.612 | 0.633 | 0.62 | 0.748 | 0.635 | 0.383 | 0.409 | 0.376 | 0.731 | 0.247 | 1.06 | 1.24 | 1.12 | 1.21 | 1.18 | 0.928 | 0.888 | 0.88 | 1.09 | 0.719
7 | COR-L23 | 0.892 | 0.757 | 0.704 | 0.842 | 0.732 | 0.588 | 0.579 | 0.669 | 0.706 | 0.639 | 0.2 | 0.209 | 0.188 | 0.201 | 0.191 | 0.968 | 0.925 | 0.874 | 0.744 | 0.442
8 | COR-L 105 | 0.663 | 0.686 | 0.682 | 0.631 | 0.444 | 0.795 | 0.754 | 0.651 | 0.986 | 0.69 | 1.4 | 1.12 | 1.14 | 1.28 | 0.884 | 0.917 | 1.02 | 0.857 | 0.845 | 0.436
9 | Calu-6 | – | – | – | – | – | – | – | – | – | – | – | – | – | – | – | 0.757 | 0.952 | 0.984 | 0.922 | 0.839
10 | ChaGo-K-1 | 0.673 | 0.615 | 0.583 | 0.51 | 0.472 | 0.573 | 0.406 | 0.552 | 0.589 | 0.648 | 0.251 | 0.25 | 0.242 | 0.261 | 0.274 | – | – | – | – | –
11 | EBC-1 | – | – | – | – | – | – | – | – | – | – | – | – | – | – | – | 1.07 | 0.873 | 0.961 | 1.05 | 0.86
12 | EKVX | 0.872 | 0.749 | 0.613 | 0.612 | 0.598 | 0.974 | 0.882 | 0.801 | 0.833 | 0.825 | 0.467 | 0.341 | 0.41 | 0.34 | 0.337 | 1.12 | 1.13 | 1.2 | 1.19 | 1.01
13 | EMC-BAC-2 | 0.404 | 0.383 | 0.383 | 0.37 | 0.363 | 1.24 | 1.07 | 1.23 | 1.16 | 1.14 | 0.429 | 0.427 | 0.432 | 0.451 | 0.469 | 0.84 | 0.846 | 0.738 | 0.827 | 0.613
14 | EPLC-272H | 0.285 | 0.264 | 0.25 | 0.314 | 0.251 | 0.251 | 0.206 | 0.519 | 0.921 | 0.408 | 0.296 | 0.306 | 0.388 | 0.475 | 0.289 | 1.34 | 1.24 | 1.28 | – | 1.13
15 | H3255 | 0.513 | 0.644 | 0.659 | 0.479 | 0.48 | 0.818 | 0.929 | 1.02 | 0.846 | 0.773 | 0.555 | 0.528 | 0.525 | 0.526 | 0.441 | 0.997 | 1.04 | 1.26 | 0.957 | 0.947
16 | HARA | 0.74 | 0.496 | 0.537 | 0.45 | 0.0888 | 0.856 | 0.907 | 1.06 | 0.79 | 0.686 | 0.282 | 0.275 | 0.282 | 0.24 | 0.245 | 1.09 | 1.06 | 1.15 | 0.996 | 0.521
17 | HCC-15 | 0.834 | 0.652 | 0.735 | 0.606 | 0.327 | 0.504 | 0.193 | 0.357 | 0.406 | 0.453 | 0.228 | 0.208 | 0.199 | 0.207 | 0.21 | 0.951 | 0.888 | 0.845 | – | 0.797
18 | HCC-44 | 0.665 | 0.557 | 0.546 | 0.561 | 0.353 | 1.14 | 1.12 | 1.09 | 1.07 | 1.13 | 0.642 | 0.637 | 0.597 | 0.624 | 0.688 | 0.703 | 0.682 | 0.708 | 0.713 | 0.532
19 | HCC-78 | 0.344 | 0.376 | 0.396 | 0.382 | 0.316 | – | – | – | – | – | 0.965 | 0.901 | 0.915 | 0.882 | 0.934 | 0.776 | 0.518 | 0.804 | 0.735 | 0.424
